According to patent US20230337664A1, “FRUIT FLY CONTROL” (MACQUARIE UNIVERSITY, priority 2020, published 2023):

Assays:
[1] = tested on: Ceratitis capitata; test: Oviposition assay for Ceratitis capitata; type: in vivo; settings: grapes dipped in 1.17% w/v solution; P<0.0001
Source text: Red seedless grapes from IGA express (Murdoch University, Perth) washed with warm water thrice and dried with paper towel were used as oviposition substrate. Solution of 1-octanol (1.17% w/v) or 1-nonanol (1.17% w/v) were made by mixing appropriate amounts of 1-octanol or 1-nonanol in water with ethanol as an emulsifier. Washed grapes of equal size, dipped into the above solutions for 15-20 sec, was provided to gravid females (50 gravid females; 15-20 days old) in cages (30×30×30 cm) to lay eggs. Grapes that were dipped in water and emulsifier mixture was used as control. Eggs laid in each grapes was enumerated under a stereo-dissecting microscope (Olympus, Japan). Forty replicates for each test compound and control were carried out.

[2] = tested on: Zeugodacus cucumis antenna; test: GC-EAG responses, Zeugodacus cucumis; settings: both sexes
Source text: (§1) Coupled Gas Chromatography-Electroantennography (GC-EAG) recordings were made with Ag-glass microelectrodes filled with electroconductive gel (Spectra 360, Parker Laboratories Inc., USA). The head of male or female flies (i.e., Bactrocera tryoni, Bactrocera jarvisi, Bactrocera kraussi, and Zeugodacus cucumis) was separated from the body with a microscalpel and was placed on the tip of the indifferent electrode, making sure the base of the head is affixed to the gel in the electrode. The tip of the insect antenna was made to touch the recording electrode and was slightly inserted into the gel to stabilize the antenna. The mounted heads were under charcoal filtered and humidified air flow (2400 mL min-1) controlled by a flow controller (Stimulus Controller CS-55, Syntech, Hilversum, The Netherlands). The signals were passed through a high impedance amplifier (UN-06, Syntech, Hilversum, The Netherlands). 1-octanol or 1-nonanol were tested individually or as mixture of known concentration. After injection of compounds, the effluent from the GC column was simultaneously directed to the antennal preparation and the GC detector. […] The outputs from the EAG amplifier and the FID were monitored simultaneously and analysed using the GCEAD 2014 software v1.2.5 (Syntech, The Netherlands).

[3] = tested on: Bactrocera jarvisi; test: Oviposition assay for Bactrocera jarvisi; type: in vivo; settings: 1.17% in agar plate with mango juice; P<0.0001
Description: Agar plates with oviposition stimulant (MJ: Mango Juice) with 1-octanol (1.17%) or 1-nonanol (1.17%) were used as oviposition substrate to determine the oviposition deterrent activity of 1-octanol and 1-nonanol to gravid female B. jarvisi. Agar (0.8 g in 100 ml of diluted mango juice with water; 1:1) melted in a microwave, was cooled to 40° C. and appropriate amount of 1-octanol or 1-nonanol was added. This mixture was poured into Petri plates and cooled to 0° C. in a refrigerator. This was done to enhance setting of the mixture and lower volatile vaporization. Oviposition substrates were prepared freshly when required. Oviposition plate containing MJ alone (control), MJ+1-octanol or MJ+1-nonanol was provided to gravid females (20 gravid females; 15-20 days old) in cages (30×30×30 cm) to lay eggs. The eggs laid in each plate was enumerated under a stereo-dissecting microscope (Olympus, Japan). Twenty four replicates for each test compound and control were carried out.

[4] = tested on: Zeugodacus cucumis; test: Oviposition assay for Zeugodacus cucumis; type: in vivo; settings: 1.17% w/v with zucchini juice on agar plate; P<0.0001
Description: Agar plates applied with oviposition stimulant (OS: fresh zucchini juice) with 1-octanol (1.17% w/v) or 1-nonanol (1.17% w/v) were used as oviposition substrate to determine the oviposition deterrent activity of 1-octanol and 1-nonanol to gravid female Z. cucumis. Agar (0.8 g in 100 ml water) was melted in a microwave, was cooled to 40° C. and poured into Petri plates and cooled at 0° C. Oviposition stimulant alone or OS mixed with 1-octanol or 1-nonanol (50 ul) was spread on agarose plates. Oviposition substrates were prepared freshly when required. Oviposition plate containing OS alone (control), OS+1-octanol or OS+1-nonanol was provided to gravid females (20 gravid females; 15-20 days old) in cages (30×30×30 cm) to lay eggs. The eggs laid in each plate was enumerated under a stereo-dissecting microscope (Olympus, Japan). Twenty four replicates for each test compound and control were carried out.

[5] = tested on: Bactrocera kraussi; test: Oviposition assay for Bactrocera kraussi; type: in vivo; settings: orange segments dipped in 1.17% w/v solution; P<0.0001
Source text: Oranges from Woolworths (Marsfield, NSW) were washed with warm water and dried with paper towel. They were peeled and segmented and a single segment was used as oviposition substrate. Solution of 1-octanol (1.17% w/v) or 1-nonanol (1.17% w/v) were made by mixing appropriate amounts of 1-octanol or 1-nonanol in water with ethanol as an emulsifier. Orange segments of equal size, dipped into the above solutions for 15-20 sec, was provided to gravid females flies (20 gravid females; 20 days old) in cages (30×30×30 cm) to lay eggs. Orange segments dipped in water and emulsifier mixture was used as control. Eggs laid in each orange segment was enumerated under a stereo-dissecting microscope (Olympus, Japan). Twelve replicates for each test compound and control were carried out.

[6] = tested on: Bactrocera tryoni antenna; test: GC-EAG responses, Bactrocera tryoni; settings: both sexes
Source text: as §1

[7] = tested on: Bactrocera kraussi antenna; test: GC-EAG responses, Bactrocera kraussi; settings: both sexes
Source text: as §1

[8] = tested on: Bactrocera jarvisi antenna; test: GC-EAG responses, Bactrocera jarvisi; settings: both sexes
Source text: as §1

[9] = tested on: Bactrocera tryoni; test: Oviposition assay for Bactrocera tryoni; type: in vivo; settings: 1.17% w/v in agar plate with γ-octalactone; P<0.0001
Description: Agar plates with oviposition stimulant (OS; γ-octalactone) with 1-octanol (1.17% w/v) or 1-nonanol (1.17% w/v) were used as oviposition substrate to determine the oviposition deterrent activity of 1-octanol and 1-nonanol to gravid female B. tryoni. Agarose (0.8 g in 100 ml water) was melted in a microwave, was cooled to 40° C. and appropriate amount of the oviposition stimulant in combination with 1-octanol or 1-nonanol was added. This mixture was poured into Petri plates and cooled at 0° C. in a refrigerator. This was done to enhance setting of the mixture and lower volatile vaporization. Oviposition substrates were prepared freshly when required. Oviposition plate containing OS alone (control), OS+1-octanol or OS+1-nonanol was provided to gravid females (50 gravid females; 15-20 days old) in cages (30×30×30 cm) to lay eggs. The eggs laid in each plate was enumerated under a stereo-dissecting microscope (Olympus, Japan). Thirty replicates for each test compound and control were carried out.

[10] = tested on: Ceratitis capitata antenna; test: Standalone EAG, Ceratitis capitata; settings: both sexes; ten replicates per compound per sex
Source text: For the […], Ceratitis capitata, a standalone EAG was used for antennal recordings. Electroconductive gel (Spectra 360, Parker Laboratories Inc., USA) were applied to the arms of the metal electrodes and the head of male or female fly, separated from the body was affixed onto one of the indifferent metal arm. The recording arm with gel was made to touch a single or both the antenna of the fly. The antennal preparation was inserted to the EAG probe holder that was under filtered and humidified air the same as described above. The EAG signals were passed through a high impedance amplifier (UN-06, Syntech, Hilversum, The Netherlands). 1-Octanol or 1-nonanol of known concentrations were tested individually. The compounds (10 ul) were dispensed on a filter paper and were placed into a pasture pipette. The prepared pipettes were fixed tubing from the stimulus controller (CS-55, Syntech, The Netherlands) and the stimulus was puffed over the antennal preparation. The response was record using EAGPro software (Syntech, The Netherlands). Ten replicates were recorded for each compound per sex, with EAG activity confirmed in 100% of trials presenting 1-octanol or 1-nonanol for both sexes of C. capitata (FIG. 10E).

[11] = tested on: Bactrocera tryoni; test: Four-arm olfactometer bioassay; type: in vivo; settings: arm containing C1 vs without
Description: An acrylic four-arm olfactometer (120 mm dia.) was used to measure behavioural responses of Bactrocera tryoni males/females to food (yeast hydrolysate) with or without 1-octanol (EAG-active compound). Prior to each experiment, acrylic components were washed with a non-ionic detergent solution, rinsed with ethanol solution and distilled water, and left to air dry. Experiments were conducted in a controlled environment room (25±2° C., 60% RH). The central area was fitted with a filter-paper base (Whatmann No. 1, 12 cm dia.) to provide traction for the walking insects. The room was illuminated from above by uniform lighting from white fluorescent light bulbs to negate directional bias. Individual flies (10-15 days old) were introduced through a hole below the olfactometer. Each fly was given 5 min to acclimatize in the olfactometer, after which the experiment was run for 10 min for each replicate. The olfactometer was rotated 90° after each replicate to eliminate any directional bias in the room. Air was drawn through the central hole at 200 ml min-1 and subsequently exhausted from the room. The central arena of the olfactometer was divided into four discrete odour fields corresponding to each of four inlet arms. A choice test was performed that used two different opposite arms. […] Fly activity in each olfactometer was video recorded. The time spent in each arm was recorded using BORIS software. […]

[12] = tested on: Bactrocera tryoni antenna; test: GC-EAD electrophysiology of ant extracts; settings: peak in Head and Headspace volatiles
Source text: Coupled Gas Chromatography-Electroantennography (GC-EAG) recordings were made with Ag-glass microelectrodes filled with electroconductive gel (Spectra 360, Parker Laboratories Inc., USA). The head of male or female Bactrocera tryoni, anaesthetized by chilling, was separated from the body with a microscalpel and was placed on the tip of the indifferent electrode, making sure the base of the head is affixed to the gel in the electrode. The tip of the insect antenna was made to touch the recording electrode and was slightly inserted into the gel to stabilize the antenna. The signals were passed through a high impedance amplifier (UN-06, Syntech, Hilversum, The Netherlands) and analysed using a software package provided by Syntech. Each extract-cuticular compounds, Dufour's glands, poison glands, trail, headspace, and head extractions were tested individually. After injection of extraction samples, the effluent from the GC column was simultaneously directed to the antennal preparation and the GC detector. Separation of compounds was achieved on an Agilent Gas Chromatography system equipped with a column injector and a flame ionization detector (FID), using an Agilent HP-5 column (30 m×0.32 mm, 0.25 μm film). […] The outputs from the EAG amplifier and the FID were monitored simultaneously and analysed using the Syntech software package. […]

[13] = tested on: Bactrocera tryoni; test: Mating assay (mating disruption); type: in vivo; settings: of 15 trials; 5 microliters on filter paper, air pumped into arena; P<0.00001 vs control
Description: Mating assays were carried out at dusk, the normal mating time of B. tryoni. A pair of 15-day old male and female flies were introduced into a behavioural arena 30 min before the onset of dusk. They were allowed to acclimatize for 20 min after which 1-octanol or filtered air was pumped through the inlet of the arena. Five microliters of 1-octanol was applied on a clean filter paper. This filter paper was placed into an air-tight vessel with an inlet and outlet. Charcoal filtered air (1 litre per hour) was pumped into the vessel from the inlet and the outlet was connected to the inlet of the arena with flies. Air from a vessel with clean filter paper was used as control. Fifteen pairs were set up for both 1-octanol treatment and air control. The activity of flies was recorded overnight, and the video was analysed using BORIS software. Collected data included (1) whether a pair mated, (2) Number of copulation attempts, and (3) copula duration.

`CCCCCCCCCO` [1-nonanol] was tested, and the “Eggs laid vs control” value [1] was “significantly different from control”, the “Trials with EAG activity” value [2] was 100 % of trials and the “Eggs laid on oviposition plates vs control” value [3] was “significantly different from control”. The “Eggs laid on oviposition plates vs control” value [4] was “significantly different from control”, the “Eggs laid vs control” value [5] was “significantly different from control” and the “Trials with EAG activity” value [6] was 100 % of trials. The “Trials with EAG activity” value [7] was 100 % of trials, the “Trials with EAG activity” value [8] was 100 % of trials and the “Eggs laid on oviposition plates vs control” value [9] was “significantly different from control”. The “Trials with EAG activity” value [10] was 100 % of trials.
For `CCCCCCCCO` [1-octanol], the “Eggs laid vs control” value [1] was “significantly different from control”, the “Trials with EAG activity” value [2] was 100 % of trials and the “Eggs laid on oviposition plates vs control” value [3] was “significantly different from control”. For the same molecule, the “Eggs laid on oviposition plates vs control” value [4] was “significantly different from control”, the “Time spent in olfactometer arm” value [11] was “less time” and the “Eggs laid vs control” value [5] was “significantly different from control”. For the same molecule, the “Trials with EAG activity” value [6] was 100 % of trials, the “Trials with EAG activity” value [7] was 100 % of trials and the “Trials with EAG activity” value [8] was 100 % of trials. For the same molecule, the “Response in fly's antenna (GC-EAD)” value [12] was “trigger response”, the “Eggs laid on oviposition plates vs control” value [9] was “significantly different from control” and the “Trials in which flies attempted mating” value [13] was “none”. For the same molecule, the “Trials with successful mating” value [13] was “none” and the “Trials with EAG activity” value [10] was 100 % of trials.
